Data reported in US7157453B2, “Urea substituted imidazoquinolines” (3M Innovation Properties Company, priority 1999, dated 2007).
Counter-ions that a name gives are not always drawn.

What was measured:
[1] = system: tumor necrosis factor (α); assay: Cytokine Induction in Human Cells: tumor necrosis factor (α) by ELISA; type: cell-based; conditions: PBMC; human PBMCs, incubated 18 to 24 hours, lowest concentration found to induce tumor necrosis factor
Excerpt: (§1) An in vitro human blood cell system was used to assess cytokine induction by compounds of the invention. Activity is based on the measurement of interferon and tumor necrosis factor (α) (IFN and TNF, respectively) secreted into culture media as described by Testerman et. al. In “Cytokine Induction by the Immunomodulators Imiquimod and S-27609”, Journal of Leukocyte Biology, 58, 365–372 (September, 1995).
(§2) Whole blood is collected by venipuncture into EDTA vacutainer tubes from healthy human donors. Peripheral blood mononuclear cells (PBMCs) are separated from whole blood by density gradient centrifugation using Histopaque®-1077 (Sigma Chemicals, St. Louis, Mo.). The PBMCs are suspended at 3–4×10^6 cells/mL in RPMI 1640 medium containing 10% fetal bovine serum, 2 mM L-glutamine and 1% penicillin/streptomycin solution (RPMI complete). The PBMC suspension is added to 48 well flat bottom sterile tissue culture plates (Costar, Cambridge, Mass. or Becton Dickinson Labware, Lincoln Park, N.J.) containing an equal volume of RPMI complete media containing test compound.
(§3) The compounds are solubilized in dimethyl sulfoxide (DMSO). The DMSO concentration should not exceed a final concentration of 1% for addition to the culture wells.
(§4) The solution of test compound is added at 60 μM to the first well containing RPMI complete and serial (three fold or ten fold) dilutions are made. The PBMC suspension is then added to the wells in an equal volume, bringing the test compound concentrations to the desired range. The final concentration of PBMC suspension is 1.5–2×10^6 cells/mL. The plates are covered with sterile plastic lids, mixed gently and then incubated for 18 to 24 hours at 37° C. in a 5% carbon dioxide atmosphere.
(§5) Following incubation the plates are centrifuged for 5–10 minutes at 1000 rpm (˜200×g) at 4° C. The cell culture supernatant is removed with a sterile polypropylene pipet and transferred to sterile polypropylene tubes. Samples are maintained at −30 to −70° C. until analysis. The samples are analyzed for interferon (α) and tumor necrosis factor (α) by ELISA
Tumor necrosis factor (α) (TNF) concentration is determined using ELISA kits available from Genzyme, Cambridge, Mass.; R&D Systems, Minneapolis, Minn.; or Pharmingen, San Diego, Calif.
(§6) The table below lists the lowest concentration found to induce interferon and the lowest concentration found to induce tumor necrosis factor for each compound.

interferon (α) = assay: Cytokine Induction in Human Cells: interferon (α) by ELISA; type: cell-based; conditions: PBMC; human PBMCs, incubated 18 to 24 hours, lowest concentration found to induce interferon
Excerpt: as §1, §2, §3, §4, §5
Interferon (α) concentration is determined by ELISA using a Human Multi-Species kit from PBL Biomedical Laboratories, New Brunswick, N.J.
as §6

Structure (SMILES)	melting point	minimal effective concentration [1] [µM]	minimal effective concentration (interferon (α)) [µM]
Nc1nc2ccccc2c2c1ncn2CCCCNC(=O)Oc1ccc2ccccc2c1	154 to 155 °C		
CCCCCc1nc2c(N)nc3c(c2n1CCCCNC(=O)N1CCOCC1)CCCC3 (as salt: hydrochloride) [Example 172, N-[4-(4-amino-2-pentyl-6,7,8,9-tetrahydro-1H-imidazo[4,5-c]quinolin-1-yl)butyl]morpholine-4-carboxamide hydrochloride]	126.8 to 127.5 °C		
CC(C)(C)OC(=O)NCCn1cnc2c(N)nc3ccccc3c21 [Example 1, Tert-Butyl N-[2-(4-Amino-1H-imidazo[4,5-c]quinolin-1-yl)ethyl]carbamate]	215 °C	30	3.33
CC(C)(C)OC(=O)NCCCCn1cnc2c(N)nc3ccccc3c21 [Example 2]	171 to 173 °C	3.33	0.37
Nc1nc2ccccc2c2c1ncn2CCCCNC(=O)N1CCOCC1 [Example 5, N^4-[4-(4-Amino-1H-imidazo[4,5-c]quinolin-1-yl)butyl]-4-morpholinecarboxamide]	177 to 179.5 °C	> 30	3.33
CN(C(=O)NCCCCn1cnc2c(N)nc3ccccc3c21)c1ccccc1 [Example 6, N^1-[4-(4-Amino-1H-imidazo[4,5-c]quinolin-1-yl)butyl]-N-methyl-N-phenylurea]	87 to 88 °C	> 30	0.37
COc1ccc(Cc2nc3c(N)nc4ccccc4c3n2CCCCNC(N)=O)cc1 [Example 10, N-{4-[4-Amino-2-(4-methoxybenzyl)-1H-imidazo[4,5-c]quinolin-1-yl]butyl}urea]	196 °C (dec.)		
CC(C)(C)OC(=O)NCCCCn1c(-c2ccccc2)nc2c(N)nc3ccccc3c21 [Example 12, tert-Butyl N-[4-(4-Amino-2-phenyl-1H-imidazo[4,5-c]quinolin-1-1)butyl]carbamate]	182 to 183 °C		
CCCNC(=S)NCCCCn1c(-c2ccccc2)nc2c(N)nc3ccccc3c21 [Example 13, N-[4-(4-Amino-2-phenyl-1H-imidazo[4,5-c]quinolin-1-yl)butyl]-N′-propylthiourea]	113 to 116 °C		
Nc1nc2ccccc2c2c1nc(-c1ccccc1)n2CCCCNC(=S)Nc1cccnc1 [Example 14, N-[4-(4-Amino-2-phenyl-1H-imidazo[4,5-c]quinolin-1-yl)butyl]-N′-(3-pyridyl)thiourea]	118 to 120 °C		
Nc1nc2ccccc2c2c1nc(-c1ccccc1)n2CCCCNC(=O)Nc1ccc(F)cc1 [Example 15, N-[4-(4-amino-2-phenyl-1H-imidazo[4,5-c]quinolin-1-yl)butyl]-N′-(4-fluorophenyl)urea]	145 to 150 °C		
CCc1nc2c(N)nc3ccccc3c2n1CCCCNC(=O)Nc1ccccc1 [Example 143, N-[4-(4-amino-2-ethyl-1H-imidazo[4,5-c]quinolin-1-yl)butyl]-N′-phenylurea]	179.7 to 181.4 °C	0.37	0.01
Cc1nc2c(N)nc3ccccc3c2n1CCCCNC(=O)Nc1ccccc1 [Example 144, N-[4-(4-amino-2-methyl-1H-imidazo[4,5-c]quinolin-1-yl)butyl]-N′-phenylurea]	171.5 to 172.5 °C	0.37	0.04
COCCc1nc2c(N)nc3ccccc3c2n1CCCNC(=O)OC(C)(C)C [Example 148, tert-butyl 3-[4-amino-2-(2-methoxyethyl)-1H-imidazo[4,5-c]quinolin-1-yl]propylcarbamate]	174.2 to 175.8 °C	0.04	0.04
CCCCc1nc2c(N)nc3ccccc3c2n1CCCNC(=S)Nc1ccccc1 [Example 149, N-[3-(4-amino-2-butyl-1H-imidazo[4,5-c]quinolin-1-yl)propyl]-N′-phenylthiourea]	142.8 to 144 °C	0.37	0.04
CCCCNC(=O)NCCCn1c(CCCC)nc2c(N)nc3ccccc3c21 [Example 150, N-[3-(4-amino-2-butyl-1H-imidazo[4,5-c]quinolin-1-yl)propyl]-N′-butylurea]	185.5 to 186.4 °C	0.37	0.04
CCCCc1nc2c(N)nc3ccccc3c2n1CCCNC(=O)N1CCOCC1 [Example 151, N-[3-(4-amino-2-butyl-1H-imidazo[4,5-c]quinolin-1-yl)propyl]morpholine-4-carboxamide]	193.4 to 194.6 °C	0.01	0.01
CCCCc1nc2c(N)nc3ccccc3c2n1CCCNC(=S)NCCC [Example 152, N-[3-(4-amino-2-butyl-1H-imidazo[4,5-c]quinolin-1-yl)propyl]-N′-propylthiourea]	144.5 to 145.5 °C	0.04	0.04
CCCCc1nc2c(N)nc3ccccc3c2n1CCCNC(=O)NC1CCCCC1 [Example 153, N-[3-(4-amino-2-butyl-1H-imidazo[4,5-c]quinolin-1-yl)propyl]-N′-cyclohexylurea]	200 to 201 °C	0.12	0.01
CCCCc1nc2c(N)nc3ccccc3c2n1CCCCCCCCNC(=O)Nc1ccccc1 [Example 154, N-[8-(4-amino-2-butyl-1H-imidazo[4,5-c]quinolin-1-yl)octyl]-N′-phenylurea]	153 to 155 °C	1.11	0.37
CCCCCCc1nc2c(N)nc3ccccc3c2n1CCCCNC(=O)Nc1ccccc1 [Example 155, N-[4-(4-amino-2-hexyl-1H-imidazo[4,5-c]quinolin-1-yl)butyl]-N′-phenylurea]	170.4 to 171.6 °C	10	3.33
CCCNC(=S)NCCCn1c(CCOC)nc2c(N)nc3ccccc3c21 [Example 156, N-{3-[4-amino-2-(2-methoxyethyl)-1H-imidazo[4,5-c]quinolin-1-yl]propyl}-N′-propylthiourea]	172 to 173 °C	1.11	0.01
COCCc1nc2c(N)nc3ccccc3c2n1CCCNC(=S)NC1CCCCC1 [Example 157, N-{3-[4-amino-2-(2-methoxyethyl)-1H-imidazo[4,5-c]quinolin-1-yl]propyl}-N′-cyclohexylthiourea]	199 to 200 °C	1.11	0.37
COCCc1nc2c(N)nc3ccccc3c2n1CCCNC(=O)NC1CCCCC1 [Example 158, N-{3-[4-amino-2-(2-methoxyethyl)-1H-imidazo[4,5-c]quinolin-1-yl]propyl}-N′-cyclohexylurea]	179 to 180 °C	1.11	0.01
CCCCCc1nc2c(N)nc3ccccc3c2n1CCCCNC(=O)Nc1ccccc1 [Example 159, N-[4(4-amino-2-pentyl-1H-imidazo[4,5-c]quinolin-1-yl)butyl]-N′-phenylurea]	159 to 160.4 °C	10	1.11
Nc1nc2ccccc2c2c1nc(CCCOc1ccccc1)n2CCCNC(=O)N1CCOCC1 [Example 166, N-{3-[4-amino-2-(3-phenoxypropyl)-1H-imidazo[4,5-c]quinolin-1-yl]propyl}morpholine-4-carboxamide]	198.8 to 199.9 °C		
Cc1nc2c(N)nc3ccccc3c2n1CCCNC(=O)N1CCOCC1 [Example 167, N-[3-(4-amino-2-methyl-1H-imidazo[4,5-c]quinolin-1-yl)propyl]morpholine-4-carboxamide]	226 to 228 °C		
COCCc1nc2c(N)nc3c(c2n1CCCNC(=O)N1CCOCC1)CCCC3 [Example 168, N-{3-[4-amino-2-(2-methoxyethyl)-6,7,8,9-tetrahydro-1H-imidazo[4,5-c]quinolin-1-yl]propyl}morpholine-4-carboxamide]	171.8 to 173.2 °C		
